Results as given in patent US20150051264A1, “INHIBITORS OF NOX4 EXPRESSION AND /OR NOX4 FUNCTION AND THEIR USE IN THE PREVENTION AND TREATMENT OF NERVE INJURY AND/OR NEUROPATHIC PAIN” (FRAUNHOFER-GESELLSCHAFT ZUR FOERDERUNG DER ANGEWANDTEN …, priority 2011, published 2015).

Assays:
Nox4-CreERT2 mice = test: Mechanical allodynia (paw withdrawal latency) in the spared nerve injury (SNI) model after tamoxifen induction; type: in vivo, mouse; settings: tamoxifen 1 mg/d i.p. for 3 d starting 10 d after SNI, observed up to 21 d, no effect in the first 7 d or in tamoxifen-treated control mice
Procedure: Mechanical paw sensitivity. Paw withdrawal latency after mechanical stimulation was measured with an automated von Frey-type testing device (Dynamic Plantar Aesthesiometer; Ugo Basile) which allows for reliable detection of mechanical sensitivity in mice (Schmidtko et al., 2008). The stainless steel probe of the touch stimulator unit was pushed against the paw with ascending force until a strong and immediate withdrawal occurred. The maximum force was set at 5 g and the ramp speed was 0.5 g/s. The paw withdrawal latency was calculated as the mean of 4-6 measurements with at least 20 s in between.
Neuropathic pain. The “spared nerve injury” (SNI) model and the “chronic constriction injury” (CCI) model were used to investigate neuropathic pain behavior. Surgery was carried out under isoflurane anaesthesia. For SNI, two branches of the sciatic nerve were ligated and cut distally, leaving the sural nerve intact (Decosterd and Woolf, 2000). […]
(§1) Global gene ablation may cause developmental compensatory adaptations that might affect phenotypic changes in the genetically manipulated adult animal. […] Ten days after SNI, mice were i.p. injected with tamoxifen (1 mg/d for 3 d) to activate Cre recombinase and knock-down Nox4, and paw withdrawal latency times were measured up to 21 d after the first injection.

Nox4 mRNA = Nox4 mRNA expression by quantitative real-time RT-PCR after tamoxifen induction in Nox4-CreERT2 mice; type: in vivo, mouse; settings: tamoxifen 1 mg/d i.p. for 3 d
Procedure: Tamoxifen induction. Tamoxifen (Sigma Aldrich) was prepared by dissolving in ethanol (10 mg per 100 μl) and mixing this solution with 900 μl corn oil for a final concentration of 10 mg/ml. Eight- to ten-week-old Nox4-CreERT2 mice were i.p. injected with 100 μl tamoxifen solution (1 mg, corresponding to about 40 mg/kg tamoxifen) once a day at 10, 11 and 12 d after SNI.
Mice were exsanguinated under deep isoflurane anaesthesia, and tissues were dissected, snap frozen in liquid nitrogen and stored at −80° C. Total RNA from spinal cord, brain and DRGs was extracted under RNase-free conditions using a RNA isolation kit (for spinal cord and brain: RNeasy® Lipid Tissue Mini Kit; Qiagen; for DRGs: RNAqueous Micro Kit; Ambion) according to the manufacturer's instructions, DNase treated for 15 min to minimize genomic DNA contamination and quantified with a NanoDrop® ND-1000 spectrophotometer (NanoDrop® Technologies). cDNA was synthesized using 200 ng RNA, random hexamer primers, RT-Enhancer and the Verso®-enzyme of the Verso® Kit (Thermo Scientific). Real-time RT-PCR was performed with an ABI Prism® 7500 Sequence Detection System (Applied Biosystems) using TaqMan Gene Expression Assays for murine Nox4 (Mm01317086_ml), Nox1 (Mm00549170_m1), Nox2 (Mm01287742_m1), Nox3 (Mm01339132_m1), GAPDH (Mm99999915_μl) and β-actin (Mm00607939_s1), purchased from Applied Biosystems. […] Relative expression of target gene levels was determined using the comparative ΔΔCt method, with Ct indicating the cycle number at which the signal of the PCR product crosses an arbitrary threshold set within the exponential phase of the PCR. […]
as §1

**Q.** For `CC/C(=C(\c1ccccc1)c1ccc(OCCN(C)C)cc1)c1ccccc1` [tamoxifen, Tamoxifen], which “Mechanical allodynia (paw withdrawal latency after mechanical stimulation)” value (Nox4-CreERT2 mice) is on record?
**A.** gradually recovered from mechanical allodynia

**Q.** And the “Nox4 mRNA in DRGs as compared to vehicle-treated Nox4-CreERT2 mice” value (Nox4 mRNA; Nox4-CreERT2 mice, SNI, 21 d after tamoxifen treatment, P=0.008)?
**A.** 54%

**Q.** What about the “Nox4 mRNA in the spinal cord as compared to vehicle-treated Nox4-CreERT2 mice” value (Nox4 mRNA; Nox4-CreERT2 mice, SNI, 21 d after tamoxifen treatment, P=0.116) of the same molecule?
**A.** 83%

**Q.** What about the “Nox4 mRNA in DRGs, of baseline levels” value (Nox4 mRNA; 21 d after treatment, no significant reduction in the spinal cord) of the same molecule?
**A.** ~50%
